Laboratory results: patent publication US9169217B2, “Arylalkyl esters of 4-amino-6-(substituted phenyl)-picolinates and 6-amino-2-(substituted phenyl)-pyrimidinecarboxylates and their use as selective herbicides for crops” (Dow AgroSciences LLC, priority 2011, dated 2015)

Tests used:
Assay type in all cases: in vivo
[1] = tested on: Cyperus rotundus L. (purple nutsedge); experiment: In-water applied herbicidal activity in transplanted paddy rice (Example 17); conditions: rice cropping systems, 35 g ae/ha, 21 DAA, may represent multiple trials
Description: (§1) Weed seeds or nutlets of the desired test plant species were planted in puddled soil (mud) prepared by mixing a non-sterilized mineral soil (28 percent silt, 18 percent clay, and 54 percent sand, with a pH of about 7.3 to 7.8 and an organic matter content of about 1.0 percent) and water at a ratio of 100 kilograms (kg) of soil to 19 liters (L) of water. The prepared mud was dispensed in 250 mL aliquots into 480 mL non-perforated plastic pots with a surface area of 91.6 cm^2 leaving a headspace of 3 cm in each pot. Rice seeds were planted in Sun Gro MetroMix 306 planting mixture, which typically has a pH of 6.0 to 6.8 and an organic matter content of about 30 percent, in plastic plug trays. Seedlings at the second or third leaf stage of growth were transplanted into 650 mL of mud contained in 960 mL non-perforated plastic pots with a surface area of 91.6 cm^2 four days prior to herbicide application. The paddy was created by filling the 3 cm headspace of the pots with water. When required to ensure good germination and healthy plants, a fungicide treatment and/or other chemical or physical treatment was applied. The plants were grown for 4-14 d in a greenhouse with an approximate 14-h photoperiod which was maintained at about 29° C. during the day and 26° C. during the night. Nutrients were added as Osmocote (17:6:10, Nitrogen:Phosphorus:Potassium (N:P:K)+minor nutrients) at 2 grams (g) per cup. Water was added on a regular basis to maintain the paddy flood, and supplemental lighting was provided with overhead metal halide 1000-Watt lamps as necessary. The plants were employed for testing when they reached the second or third true leaf stage.
(§2) Treatments consisted of esters of compounds 1-4, 6-33, 35-39, 41 and 42 and A-G. Compound A is methyl 4-amino-3-chloro-6-(4-chloro-3-ethoxy-2-fluorophenyl)-5-fluoropicolinate; compound B is methyl 4-amino-3-chloro-6-(4-cyclopropylphenyl)-5-fluoropicolinate; compound C is methyl 4-amino-3-chloro-6-(2,4-dichloro-3-methoxyphenyl)picolinate; compound D is methyl 6-amino-2-(4-chloro-2-fluoro-3-methoxyphenyl)-5-vinylpyrimidine-4-carboxylate; compound E is methyl 4-amino-3-chloro-6-(4-chloro-2-fluoro-3-methoxyphenyl)-5-fluoropicolinate; compound F is methyl 6-amino-2-(4-chloro-2-fluoro-3-methoxyphenyl)-5-methoxypyrimidine-4-carboxylate; and compound G is methyl 4-amino-3-chloro-6-(4-chloro-2-fluoro-3-methoxyphenyl)picolinate. Weighed amounts of technical grade compounds were placed in individual 120 mL glass vials and were dissolved in 20 mL of acetone to obtain concentrated stock solutions. […] The concentrated stock solutions obtained were diluted with 20 mL of an aqueous mixture containing 2.5% Agri-dex crop oil concentrate (v/v). The final application solutions contained 1.25% (v/v) Agri-dex crop oil concentrate. Generally, multiple concentrations were tested utilizing the same stock solution. Applications were made by injecting an appropriate amount of the application solution into the aqueous layer of the paddy. Control plants were treated in the same manner with the solvent blank.
(§3) The treated plants and control plants were placed in a greenhouse as described above and water was added as needed to maintain a paddy flood. After 3 weeks the condition of the test plants, compared with that of the untreated plants, was determined visually and scored on a scale of 0 to 100 percent where 0 corresponds to no injury and 100 corresponds to complete kill.
(§4) By applying the well-accepted probit analysis as described by J. Berkson in Journal of the American Statistical […], 48, 565 (1953) and by D. Finney in “Probit Analysis” Cambridge University Press (1952), the data gathered can be used to calculate GR50 and GR80 values, which are defined as growth reduction factors that correspond to the effective dose of herbicide required to kill or control 50 percent or 80 percent, respectively, of a target plant.

[2] = tested on: Echinochloa crus-galli (L.) P.BEAUV. (barnyardgrass); experiment: as above; conditions: Echinochloa crus-galli, 504 h; rice cropping systems, in-water applied (paddy), 35 g ae/ha, 21 DAA; may represent multiple trials; read-out: Visual Injury (%) ECHCG
Description: as §1, §2, §3, §4

[3] = tested on: Lolium multiflorum (Ryegrass, Italian); experiment: Postemergence herbicidal activity in cereal crops (Example 14); conditions: wheat cropping systems, postemergence spray, 17.5 g ae/ha, 21 DAA
Description: (§5) Seeds of the desired test plant species were planted in Sun Gro Metro-Mix® 360 planting mixture, which typically has a pH of 6.0 to 6.8 and an organic matter content of about 30 percent, in plastic pots with a surface area of 84.6 cm^2. When required to ensure good germination and healthy plants, a fungicide treatment and/or other chemical or physical treatment was applied. The plants were grown for 7-36 d in a greenhouse with an approximate 14 h photoperiod which was maintained at about 18° C. during the day and 17° C. during the night. Nutrients and water were added on a regular basis and supplemental lighting was provided with overhead metal halide 1000-Watt lamps as necessary. The plants were employed for testing when they reached the second or third true leaf stage.
(§6) Treatments consisted of esters of compounds 33, 34, 39, 40 and 42 and B, F, G and H. Compound B is methyl 4-amino-3-chloro-6-(4-cyclopropylphenyl)-5-fluoropicolinate; compound F is methyl 6-amino-2-(4-chloro-2-fluoro-3-methoxyphenyl)-5-methoxypyrimidine-4-carboxylate; compound G is methyl 4-amino-3-chloro-6-(4-chloro-2-fluoro-3-methoxyphenyl)picolinate; and compound H is methyl 4-amino-3-chloro-6-(4-chloro-2-fluoro-3-(1-fluoroethyl)phenyl)-5-fluoropicolinate. A weighed amount, determined by the highest rate to be tested, of each test compound was placed in a 25 mL glass vial and was dissolved in 8 mL of a 97:3 v/v mixture of acetone and DMSO to obtain concentrated stock solutions. […] The concentrated stock solutions obtained were diluted with 16 mL of an aqueous mixture containing acetone, water, isopropyl alcohol, DMSO, Agri-dex crop oil concentrate, and Triton® X-77 surfactant in a 64.7:26.0:6.7:2.0:0.7:0.01 v/v ratio to obtain spray solutions containing the highest application rates. Additional application rates were obtained by serial dilution of 12 mL of the high rate solution into a solution containing 4 mL of a 97:3 v/v mixture of acetone and DMSO and 8 mL of an aqueous mixture containing acetone, water, isopropyl alcohol, DMSO, Agri-dex crop oil concentrate, and Triton® X-77 surfactant in a 48.5:39.0:10.0:1.5:1.0:0.02 v/v ratio to obtain ½×, ¼×, ⅛× and 1/16× rates of the high rate. Compound requirements are based upon a 12 mL application volume at a rate of 187 L/ha. Formulated compounds were applied to the plant material with an overhead Mandel track sprayer equipped with 8002E nozzles calibrated to deliver 187 L/ha over an application area of 0.503 m^2 at a spray height of 18 inches (43 cm) above average plant canopy height. Control plants were sprayed in the same manner with the blank.
(§7) The treated plants and control plants were placed in a greenhouse as described above and watered by sub-irrigation to prevent wash-off of the test compounds. After 20-22 d, the condition of the test plants as compared with that of the untreated plants was determined visually and scored on a scale of 0 to 100 percent where 0 corresponds to no injury and 100 corresponds to complete kill.

[4] = tested on: Setaria viridis (Foxtail, green); experiment: as above; conditions: wheat cropping systems, postemergence spray, 17.5 g ae/ha, 21 DAA
Description: as §5, §6, §7

Avena fatua (Oat, wild) = experiment: as above; conditions: wheat cropping systems, postemergence spray, 35 g ae/ha, 21 DAA
Description: as §5, §6, §7

[5] = tested on: Matricaria chamomilla (Mayweed, wild); experiment: as above; conditions: wheat cropping systems, postemergence spray, 35 g ae/ha, 21 DAA
Description: as §5, §6, §7

[6] = tested on: Scirpus juncoides ROXB. (Japanese bulrush); experiment: In-water applied herbicidal activity in transplanted paddy rice (Example 17); conditions: Schoenoplectiella juncoides, 504 h; rice cropping systems, in-water applied (paddy), 35 g ae/ha, 21 DAA; may represent multiple trials; read-out: Visual Injury (%) SCPJU
Description: as §1, §2, §3, §4

[7] = tested on: Cyperus difformis L. (small-flower flatsedge); experiment: Postemergence foliar-applied herbicidal activity in direct seeded rice (Example 16); conditions: post-emergence, 504 h, rice cropping systems, foliar-applied, 8.75 g ae/ha, 21 DAA, may represent multiple trials, read-out: Visual Injury (%) CYPDI
From the text: (§8) Seeds or nutlets of the desired test plant species were planted in a soil matrix prepared by mixing a loam soil (43 percent silt, 19 percent clay, and 38 percent sand, with a pH of about 8.1 and an organic matter content of about 1.5 percent) and river sand in an 80 to 20 ratio. The soil matrix was contained in plastic pots with a surface area of 139.7 cm^2. When required to ensure good germination and healthy plants, a fungicide treatment and/or other chemical or physical treatment was applied. The plants were grown for 10-17 d in a greenhouse with an approximate 14-h photoperiod which was maintained at about 29° C. during the day and 26° C. during the night. Nutrients and water were added on a regular basis and supplemental lighting was provided with overhead metal halide 1000-Watt lamps as necessary. The plants were employed for testing when they reached the second or third true leaf stage.
(§9) Treatments consisted of esters of compounds 1-4, 6-8, 10, 11, 13-16, 20-31, 35, 38, 41 and 42 and A-E. Compound A is methyl 4-amino-3-chloro-6-(4-chloro-3-ethoxy-2-fluorophenyl)-5-fluoropicolinate; compound B is methyl 4-amino-3-chloro-6-(4-cyclopropylphenyl)-5-fluoropicolinate; compound C is methyl 4-amino-3-chloro-6-(2,4-dichloro-3-methoxyphenyl)picolinate; compound D is methyl 6-amino-2-(4-chloro-2-fluoro-3-methoxyphenyl)-5-vinylpyrimidine-4-carboxylate; and compound E is methyl 4-amino-3-chloro-6-(4-chloro-2-fluoro-3-methoxyphenyl)-5-fluoropicolinate. Weighed amounts of technical grade compounds were placed in 25 mL glass vials and dissolved in a volume of 97:3 v/v acetone-DMSO to obtain 12× stock solutions. […] The concentrated stock solutions were added to the spray solutions so that the final acetone and DMSO concentrations were 16.2% and 0.5%, respectively. Spray solutions were diluted to the appropriate final concentrations with the addition of 10 mL of an aqueous mixture of 1.5% (v/v) Agri-dex crop oil concentrate. Generally, multiple concentrations of spray solutions were formulated and tested utilizing the same stock solution. The final spray solutions contained 1.25% (v/v) Agri-dex crop oil concentrate. Compound requirements are based upon a 12 mL application volume at a rate of 187 L/ha. Spray solutions were applied to the plant material with an overhead Mandel track sprayer equipped with 8002E nozzles calibrated to deliver 187 L/ha over an application area of 0.503 square meters (m^2) at a spray height of 18 inches (43 cm) above average plant canopy height. Control plants were sprayed in the same manner with the solvent blank.
as §7, with “After 3 weeks,” for “After 20-22 d,”, “test plants,” for “test plants as”, “untreated plants,” for “untreated plants”
as §4

[8] = tested on: Scirpus juncoides ROXB. (Japanese bulrush); experiment: as above; conditions: Schoenoplectiella juncoides, post-emergence, 504 h; rice cropping systems, foliar-applied, 8.75 g ae/ha, 21 DAA; may represent multiple trials; read-out: Visual Injury (%) SCPJU
From the text: as §8, §9
as §7, with “After 3 weeks,” for “After 20-22 d,”, “test plants,” for “test plants as”, “untreated plants,” for “untreated plants”
as §4

[9] = tested on: Brachiaria platyphylla (GRISEB.) NASH (broadleaf signalgrass); experiment: as above; conditions: rice cropping systems, 8.75 g ae/ha, 21 DAA, may represent multiple trials
From the text: as §8, §9
as §7, with “After 3 weeks,” for “After 20-22 d,”, “test plants,” for “test plants as”, “untreated plants,” for “untreated plants”
as §4

[10] = tested on: Echinochloa colonum (L.) LINK (junglerice); experiment: as above; conditions: Echinochloa colona, post-emergence, 504 h, rice cropping systems, 8.75 g ae/ha, 21 DAA, may represent multiple trials, read-out: Visual Injury (%) ECHCO
From the text: as §8, §9
as §7, with “After 3 weeks,” for “After 20-22 d,”, “test plants,” for “test plants as”, “untreated plants,” for “untreated plants”
as §4

[11] = tested on: Veronica persica (Speedwell, birdseye); experiment: Postemergence herbicidal activity in cereal crops (Example 14); conditions: wheat cropping systems, postemergence spray, 8.75 g ae/ha, 21 DAA
Description: as §5, §6, §7

[12] = tested on: Brassica sinapis (Mustard, wild); experiment: as above; conditions: wheat cropping systems, postemergence spray, 8.75 g ae/ha, 21 DAA
Description: as §5, §6, §7

[13] = tested on: Pennisetum glaucum (Foxtail, yellow); experiment: as above; conditions: wheat cropping systems, postemergence spray, 8.75 g ae/ha, 21 DAA
Description: as §5, §6, §7

Row | Compound | pest or weed control at 35 g/ha [2] | pest or weed control at 35 g/ha [6] | pest or weed control at 8.75 g/ha [7] | pest or weed control at 8.75 g/ha [8] | Visual Injury (%) BRAPP [9] | pest or weed control at 8.75 g/ha [10] | Visual Injury (%) VERPE [11] | Visual Injury (%) SINAR [12] | Visual Injury (%) PESGL [13] | also measured
1 | COc1c(Cl)ccc(-c2cc(N)c(Cl)c(C(=O)OCc3ccc(Cl)cc3Cl)n2)c1F [Compound 17, 2,4-dichlorobenzyl 4-amino-3-chloro-6-(4-chloro-2-fluoro-3-methoxyphenyl)picolinate] | 98% | – | – | – | – | – | – | – | – | Visual Injury (%) CYPRO [1]: 100%
2 | COc1c(N)nc(-c2ccc(Cl)c(OC)c2F)nc1C(=O)OCCc1ccccc1 [Compound 34] | – | – | – | – | – | – | – | – | – | Visual Injury (%) LOLMU [3]: 70%; Visual Injury (%) SETVI [4]: 80%; Visual Injury (%) AVEFA (Avena fatua (Oat, wild)): 40%; Visual Injury (%) MATCH [5]: 20%
3 | COc1c(Cl)ccc(-c2cc(N)c(Cl)c(C(=O)OCc3ccccc3)n2)c1Cl [Compound 38, benzyl 4-amino-3-chloro-6-(2,4-dichloro-3-methoxyphenyl)-picolinate] | 99% | 100% | 100% | 100% | 90% | 90% | – | – | – | –
4 | CC(F)c1c(Cl)ccc(-c2nc(C(=O)OCc3ccccc3)c(Cl)c(N)c2F)c1F (stereo not drawn) [Compound 40, benzyl 4-amino-3-chloro-6-(4-chloro-2-fluoro-3-(1-fluoroethyl)phenyl)-5-fluoropicolinate] | – | – | – | – | – | – | 95% | 98% | 65% | –
5 | COC(=O)c1nc(-c2ccc(Cl)c(OC)c2Cl)cc(N)c1Cl [Compound C, methyl 4-amino-3-chloro-6-(2,4-dichloro-3-methoxyphenyl)picolinate, reference compound] | 36% | 83% | 96% | 90% | 74% | 84% | – | – | – | –
6 | COC(=O)c1nc(-c2ccc(Cl)c(C(C)F)c2F)c(F)c(N)c1Cl (stereo not drawn) [Compound H, methyl 4-amino-3-chloro-6-(4-chloro-2-fluoro-3-(1-fluoroethyl)phenyl)-5-fluoropicolinate, reference compound] | – | – | – | – | – | – | 80% | 87% | 0% | –
